Legend:
[1] = target: T1, Recombinant purified human BTK (Homo sapiens, UniProt Q06187); experiment: BTK kinase inhibitory activity, ADP-Glo kinase assay (Promega V9071); assay type: biochemical; details: for IC50: ATP 10 uM, 8 ng BTK per reaction, 1 hour 30 °C, chemiluminescence
T1 construct: purchased Promega V9071
Outline: (§1)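 Recombinant human kinases in Tris pH 7.5 buffer with MgCl2, BSA and DTT (MnCl2 added for BTK), 4 ng JAK3 or 8 ng BTK per reaction. Poly(Glu4,Tyr1) 0.2 µg/µL with 5 µM (JAK3) or 10 µM (BTK) ATP, 1% DMSO, 1 h at 30 °C. ADP-Glo luminescence used to derive IC50.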

[2] = target: T2, Recombinant purified human JAK3 (Homo sapiens, UniProt P52333); experiment: JAK3 kinase inhibitory activity, ADP-Glo kinase assay (Promega V9441); assay type: biochemical; details: for IC50: ATP 5 uM, 4 ng JAK3 per reaction, 1 hour 30 °C, chemiluminescence
T2 construct: purchased Promega V9441
T2 sequence (P52333 1-1124): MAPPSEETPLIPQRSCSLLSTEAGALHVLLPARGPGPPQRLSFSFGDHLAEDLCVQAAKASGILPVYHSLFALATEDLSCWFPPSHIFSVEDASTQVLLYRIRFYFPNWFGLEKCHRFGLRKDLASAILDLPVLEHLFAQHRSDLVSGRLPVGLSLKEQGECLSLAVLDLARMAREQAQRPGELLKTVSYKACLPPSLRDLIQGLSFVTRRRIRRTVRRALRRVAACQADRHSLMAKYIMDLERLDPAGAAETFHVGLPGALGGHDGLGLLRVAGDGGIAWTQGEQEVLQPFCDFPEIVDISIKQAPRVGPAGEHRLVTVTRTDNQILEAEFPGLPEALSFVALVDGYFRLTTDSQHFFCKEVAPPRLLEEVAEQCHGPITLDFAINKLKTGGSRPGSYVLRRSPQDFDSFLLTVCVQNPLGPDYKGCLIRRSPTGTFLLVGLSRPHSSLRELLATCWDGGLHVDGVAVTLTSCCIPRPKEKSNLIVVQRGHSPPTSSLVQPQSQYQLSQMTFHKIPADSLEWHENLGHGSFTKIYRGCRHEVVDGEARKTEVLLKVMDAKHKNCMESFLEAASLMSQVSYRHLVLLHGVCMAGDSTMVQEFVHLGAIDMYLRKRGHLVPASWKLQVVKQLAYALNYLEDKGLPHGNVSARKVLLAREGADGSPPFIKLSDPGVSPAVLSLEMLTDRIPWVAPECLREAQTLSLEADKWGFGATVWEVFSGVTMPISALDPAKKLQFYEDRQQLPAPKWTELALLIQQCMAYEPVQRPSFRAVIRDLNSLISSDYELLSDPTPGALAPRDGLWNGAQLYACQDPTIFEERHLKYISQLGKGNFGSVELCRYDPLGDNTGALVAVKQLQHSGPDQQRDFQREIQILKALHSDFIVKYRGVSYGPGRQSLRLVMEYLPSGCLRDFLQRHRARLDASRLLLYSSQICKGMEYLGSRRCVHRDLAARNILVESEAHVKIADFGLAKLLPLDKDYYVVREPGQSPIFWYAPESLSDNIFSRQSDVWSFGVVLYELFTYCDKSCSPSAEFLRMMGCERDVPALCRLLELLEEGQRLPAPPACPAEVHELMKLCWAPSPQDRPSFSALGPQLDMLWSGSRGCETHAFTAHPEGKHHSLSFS
Outline: as §1

T1 sequence (Q06187 whole entry): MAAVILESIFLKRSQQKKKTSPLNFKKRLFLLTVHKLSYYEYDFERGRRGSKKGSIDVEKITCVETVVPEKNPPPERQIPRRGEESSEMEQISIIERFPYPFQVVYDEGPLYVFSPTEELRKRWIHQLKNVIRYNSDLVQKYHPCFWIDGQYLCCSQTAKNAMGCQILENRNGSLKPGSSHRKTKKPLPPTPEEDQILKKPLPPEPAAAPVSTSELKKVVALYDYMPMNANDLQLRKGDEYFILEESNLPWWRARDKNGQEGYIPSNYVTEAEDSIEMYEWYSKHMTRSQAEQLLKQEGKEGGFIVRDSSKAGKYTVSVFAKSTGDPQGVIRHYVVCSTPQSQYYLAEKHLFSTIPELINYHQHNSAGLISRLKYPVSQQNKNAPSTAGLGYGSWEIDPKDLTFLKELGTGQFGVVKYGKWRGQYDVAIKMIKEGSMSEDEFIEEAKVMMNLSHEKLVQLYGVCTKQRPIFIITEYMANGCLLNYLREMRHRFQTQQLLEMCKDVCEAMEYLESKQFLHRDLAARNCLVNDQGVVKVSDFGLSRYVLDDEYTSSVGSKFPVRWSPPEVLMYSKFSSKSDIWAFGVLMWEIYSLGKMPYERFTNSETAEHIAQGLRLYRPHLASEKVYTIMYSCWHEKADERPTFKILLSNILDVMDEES

Row | SMILES | IC50 [1] [nM] | IC50 [2] [nM] | inhibition at 0.1 µM ([1]; @100nM compound) [%] | inhibition at 0.1 µM ([2]; @100nM compound, printed in the JAK3 IC50 column) [%]
1 | C=CC(=O)N1CCC[C@@H](Nc2nc(Nc3cnn(Cc4cccc(OC)c4)c3)nc3[nH]ccc23)C1 [Example 20, (R)-1-(3-(2-(1-(3-methoxybenzyl)-1H-pyrazol-4-ylamino)-7H-pyrrolo[2,3-d]pyrimidin-4-ylamino)piperidin-1-yl)prop-2-en-1-one] | 9.5 | 0.7 |  | 
2 | CCn1cc(Nc2nc(N[C@H]3CN(C(=O)/C(C#N)=C/C4CC4)CC[C@H]3F)c3c(Cl)n[nH]c3n2)cn1 [Example 161, (E)-2-((3S,4R)-3-((3-chloro-6-((1-ethyl-1H-pyrazol-4-yl)amino)-1H-pyrazolo[3,4-d]pyrimidin-4-yl)amino)-4-fluoropiperidine-1-carbonyl)-3-cyclopropylacrylonitrile] | 1.3 | 5 |  | 
3 | C=CC(=O)N1CCC[C@@H](Oc2nc(Nc3ccc(N4CCOCC4)cc3)nc3[nH]ccc23)C1 [Example 152, (R)-1-(3-((2-((4-morpholinophenyl)amino)-7H-pyrrolo[2,3-d]pyrimidin-4-yl)oay)piperidin-1-yl)prop-2-en-1-one] | 4.5 | 2 |  | 
4 | C=CC(=O)N1CCC[C@@H](Sc2nc(Nc3cnn(C(C)(C)C)c3)nc3[nH]nc(Cl)c23)C1 [Example 112, (R)-1-(3-((6-((1-(tert-butyl)-1H-pyrazol-4-yl)amino)-3-chloro-1H-pyrazolo [3,4-d]pyrimidin-4-yl)thio)piperidin-1-yl)prop-2-en-1-one] | 1.8 | 1.6 |  | 
5 | C=CC(=O)N1CCC[C@@H](Nc2nc(Nc3ccc(N4CCOCC4)cc3F)nc3[nH]cc(Cl)c23)C1 [Example 97] | 708 | > 80 |  | 
6 | C=CC(=O)N1CCC[C@H](Nc2nc(Nc3ccc(N4CCN(C)CC4)cc3)nc3[nH]ccc23)C1 [Example 11, (S)-1-(3-(2-(4-(4-methylpiperazin-1-yl)phenylamino)-7H-pyrrolo[2,3-d]pyrimidin-4-ylamino)piperidin-1-yl)prop-2-en-1-one] |  |  | 26.5 | 36
7 | C=CC(=O)N1CCC[C@@H](Sc2nc(Nc3cnn(CCC)c3)nc3[nH]nc(Cl)c23)C1 [Example 115, (R)-1-(3-((3-chloro-6-((1-propyl-1H-pyrazol-4-yl)amino)-1H-pyrazolo[3,4-d]pyrimidin-4-yl)thio)piperidin-1-yl)prop-2-en-1-one] | 2 | 1.7 |  | 
8 | C=CC(=O)N1CC[C@@H](C)[C@@H](Nc2nc(Nc3cnn(CC#N)c3)nc3[nH]nc(SC)c23)C1 [Example 134, 2-(4-((4-(((3R,4R)-1-acryloyl-4-methylpiperidin-3-yl)amino)-3-(methylthio)-1H-pyrazolo[3,4-d]pyrimidin-6-yl)amino)-1H-pyrazol-1-yl)acetonitrile] | 1.8 | 17.7 |  | 
9 | C=CC(=O)N1CC[C@@H](C)[C@@H](Nc2nc(Nc3cnn(Cc4cccc(OC)c4)c3)nc3[nH]nc(Cl)c23)C1 [Example 125, 1-((3R,4R)-3-((3-chloro-6-((1-(3-methoaybenzyl)-1H-pyrazol-4-yl)amino)-1H-pyrazolo[3,4-d]pyrimidin-4-yl)amino)-4-methylpiperidin-1-yl)prop-2-en-1-one] | 8.2 | 20.4 |  | 
10 | C=CC(=O)N1CC[C@@H](C)[C@@H](N(C)c2nc(Nc3cnn(CC)c3)nc3[nH]nc(Cl)c23)C1 [Example 159] | 4.5 | 27.1 |  | 
11 | C=CC(=O)N1CCC[C@@H](Nc2nc(Nc3ccc(C(=O)N4CCOCC4)cc3)nc3[nH]cc(Cl)c23)C1 [Example 68, (R)-1-(3-((5-chloro-2-((4-(morpholine-4-carbonyl)phenyl)amino)-7H-pyrrolo[2,3-d]pyrimidin-4-yl)amino)piperidin-1-yl)prop-2-en-1-one] | 12.1 | 0.7 |  | 
12 | C=CC(=O)N1CCC[C@@H](Nc2nc(Nc3cc(C)ns3)nc3[nH]cc(F)c23)C1 [Example 83, (R)-1-(3-((5-2-((3-methylisothiazol-5-yl)amino)-7H-pyrrolo[2,3-d]pyrimidin-4-yl)amino)piperidin-1-yl)prop-2-en-1-one] | 3.4 | 1.2 |  | 

From EP3478687B1 (Daewoong Pharmaceutical Co., Ltd., priority 2016, dated 2018)
